Measured values: ChEMBL document CHEMBL3769405, “Discovery of Potent and Selective Inhibitors of Phosphodiesterase 1 for the Treatment of Cognitive Impairment Associated with Neurodegenerative and Neuropsychiatric Diseases” (J Med Chem, 2016)
≈ marks a conversion by molar mass, not a printed value.

Experiments:
[1] = Lipophilicity, logD of compound at pH 1.7; assay type: physicochemical; details: buffer
[2] = Cmax in C57BL/6 mouse brain at 10 mg/kg administered through oral gavage; assay type: ADME, organism-based; parameters: dose 10 mg/kg, route oral
[3] = AUClast in C57BL/6 mouse brain at 10 mg/kg administered through oral gavage; assay type: ADME, organism-based; parameters: dose 10 mg/kg, time 0 - last, route oral
[4] = AUClast in C57BL/6 mouse plasma at 10 mg/kg administered through oral gavage; assay type: ADME, organism-based; parameters: dose 10 mg/kg, time 0 - last, route oral
[5] = Lipophilicity, logD of compound at pH 7.4; assay type: physicochemical; details: buffer
[6] = Inhibition of bovine brain PDE1 using fluorescent labeled cGMP as substrate after 15 mins by IMAP assay; parameters: species or system Bos taurus
[7] = molecular target: 3',5'-cyclic-AMP phosphodiesterase 4A (Homo sapiens, UniProt P27815); assay: Inhibition of recombinant full lenght human PDE4A using fluorescent labeled cAMP as substrate after 15 mins by IMAP assay
Sequence of 3',5'-cyclic-AMP phosphodiesterase 4A (P27815 whole entry): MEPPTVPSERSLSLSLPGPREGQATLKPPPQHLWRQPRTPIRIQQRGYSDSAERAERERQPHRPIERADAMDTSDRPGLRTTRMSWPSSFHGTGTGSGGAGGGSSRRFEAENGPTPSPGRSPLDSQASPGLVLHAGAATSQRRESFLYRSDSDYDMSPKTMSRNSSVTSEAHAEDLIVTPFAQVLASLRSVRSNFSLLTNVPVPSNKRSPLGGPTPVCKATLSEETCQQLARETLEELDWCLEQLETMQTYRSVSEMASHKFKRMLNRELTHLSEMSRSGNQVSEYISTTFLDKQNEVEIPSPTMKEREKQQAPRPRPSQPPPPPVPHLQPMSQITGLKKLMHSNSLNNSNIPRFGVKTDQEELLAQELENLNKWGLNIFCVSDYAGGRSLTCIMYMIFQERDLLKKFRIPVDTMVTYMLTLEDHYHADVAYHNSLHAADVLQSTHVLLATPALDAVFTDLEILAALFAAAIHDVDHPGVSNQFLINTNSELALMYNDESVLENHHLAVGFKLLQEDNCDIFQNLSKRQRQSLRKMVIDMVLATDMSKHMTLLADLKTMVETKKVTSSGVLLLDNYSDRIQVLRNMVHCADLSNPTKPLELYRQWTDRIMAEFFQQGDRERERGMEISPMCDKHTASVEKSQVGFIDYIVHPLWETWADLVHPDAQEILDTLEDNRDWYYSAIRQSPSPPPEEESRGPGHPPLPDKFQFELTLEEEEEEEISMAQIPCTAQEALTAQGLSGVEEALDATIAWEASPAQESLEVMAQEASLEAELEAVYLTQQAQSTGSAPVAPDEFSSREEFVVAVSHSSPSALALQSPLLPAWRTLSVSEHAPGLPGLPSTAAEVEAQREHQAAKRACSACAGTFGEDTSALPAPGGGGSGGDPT

[8] = Selectivity ratio of Ki for recombinant full lenght human PDE4A to bovine brain PDE1
in vivo = details: C57BL/6, mouse, brain/plasma
[9] = Cmax in C57BL/6 mouse plasma at 10 mg/kg administered through oral gavage; assay type: ADME, organism-based; parameters: dose 10 mg/kg, route oral
[10] = Solubility of compound in PBS; assay type: physicochemical
[11] = molecular target: High affinity cAMP-specific and IBMX-insensitive 3',5'-cyclic phosphodiesterase 8A (Homo sapiens, UniProt O60658); assay: Inhibition of recombinant full lenght human PDE8A using fluorescent labeled cAMP as substrate after 15 mins by IMAP assay
[12] = molecular target: High affinity cGMP-specific 3',5'-cyclic phosphodiesterase 9A (Homo sapiens, UniProt O76083); assay: Inhibition of recombinant full lenght human PDE9A using fluorescent labeled cGMP as substrate after 15 mins by IMAP assay
Sequence of High affinity cGMP-specific 3',5'-cyclic phosphodiesterase 9A (O76083 whole entry): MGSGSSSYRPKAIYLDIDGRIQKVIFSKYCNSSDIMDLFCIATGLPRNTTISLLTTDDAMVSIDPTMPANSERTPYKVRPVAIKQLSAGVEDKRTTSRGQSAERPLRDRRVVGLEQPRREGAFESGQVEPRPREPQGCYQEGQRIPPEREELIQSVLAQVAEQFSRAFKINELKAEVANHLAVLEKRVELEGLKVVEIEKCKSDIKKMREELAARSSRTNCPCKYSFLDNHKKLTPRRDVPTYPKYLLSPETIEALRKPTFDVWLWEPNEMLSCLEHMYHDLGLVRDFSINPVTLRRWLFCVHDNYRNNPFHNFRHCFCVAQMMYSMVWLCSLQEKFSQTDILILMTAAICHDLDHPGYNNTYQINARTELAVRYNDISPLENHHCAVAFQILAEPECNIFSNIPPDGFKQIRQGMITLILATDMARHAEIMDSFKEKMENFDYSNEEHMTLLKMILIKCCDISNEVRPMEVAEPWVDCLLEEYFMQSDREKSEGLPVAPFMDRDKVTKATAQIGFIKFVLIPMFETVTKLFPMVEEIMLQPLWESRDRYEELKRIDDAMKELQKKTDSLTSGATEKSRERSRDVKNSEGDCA

[13] = molecular target: cAMP and cAMP-inhibited cGMP 3',5'-cyclic phosphodiesterase 10A (Homo sapiens, UniProt Q9Y233); assay: Inhibition of recombinant full lenght human PDE10A using fluorescent labeled cAMP as substrate after 15 mins by IMAP assay
Sequence of cAMP and cAMP-inhibited cGMP 3',5'-cyclic phosphodiesterase 10A (Q9Y233 whole entry): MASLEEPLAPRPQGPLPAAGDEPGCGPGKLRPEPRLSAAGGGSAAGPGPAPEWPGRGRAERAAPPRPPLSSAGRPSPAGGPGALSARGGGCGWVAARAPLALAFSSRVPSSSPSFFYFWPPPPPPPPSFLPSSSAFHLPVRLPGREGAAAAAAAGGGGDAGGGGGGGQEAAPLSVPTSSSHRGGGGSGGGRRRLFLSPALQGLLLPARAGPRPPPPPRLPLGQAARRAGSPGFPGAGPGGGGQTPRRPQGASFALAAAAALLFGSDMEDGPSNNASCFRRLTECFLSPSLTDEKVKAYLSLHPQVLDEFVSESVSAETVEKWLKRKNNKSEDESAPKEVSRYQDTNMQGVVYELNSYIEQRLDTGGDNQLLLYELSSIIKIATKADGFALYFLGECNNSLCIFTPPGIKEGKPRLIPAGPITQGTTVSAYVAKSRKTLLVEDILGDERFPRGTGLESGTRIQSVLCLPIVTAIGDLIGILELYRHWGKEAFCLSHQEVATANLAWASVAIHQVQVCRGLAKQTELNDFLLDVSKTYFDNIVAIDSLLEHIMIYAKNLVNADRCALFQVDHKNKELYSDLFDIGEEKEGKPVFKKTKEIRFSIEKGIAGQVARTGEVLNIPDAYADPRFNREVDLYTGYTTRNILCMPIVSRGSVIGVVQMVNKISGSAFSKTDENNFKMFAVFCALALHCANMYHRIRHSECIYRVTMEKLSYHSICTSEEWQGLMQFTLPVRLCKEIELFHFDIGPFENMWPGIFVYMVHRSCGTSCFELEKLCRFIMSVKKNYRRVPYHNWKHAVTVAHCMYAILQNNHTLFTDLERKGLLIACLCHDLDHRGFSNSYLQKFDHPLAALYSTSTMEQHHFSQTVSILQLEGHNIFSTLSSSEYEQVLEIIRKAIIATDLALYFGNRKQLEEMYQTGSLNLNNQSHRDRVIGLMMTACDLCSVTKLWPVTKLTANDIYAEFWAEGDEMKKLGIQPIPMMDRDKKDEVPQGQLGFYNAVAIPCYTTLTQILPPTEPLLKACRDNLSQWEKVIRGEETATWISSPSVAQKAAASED

[14] = molecular target: cGMP-specific 3',5'-cyclic phosphodiesterase (Homo sapiens, UniProt O76074); assay: Inhibition of recombinant full lenght human PDE5A using fluorescent labeled cGMP as substrate after 15 mins by IMAP assay
[15] = molecular target: cGMP-inhibited 3',5'-cyclic phosphodiesterase 3B (Homo sapiens, UniProt Q13370); assay: Inhibition of recombinant full length human PDE3B using fluorescent labeled cAMP as substrate after 15 mins by IMAP assay
Sequence of cGMP-inhibited 3',5'-cyclic phosphodiesterase 3B (Q13370 whole entry): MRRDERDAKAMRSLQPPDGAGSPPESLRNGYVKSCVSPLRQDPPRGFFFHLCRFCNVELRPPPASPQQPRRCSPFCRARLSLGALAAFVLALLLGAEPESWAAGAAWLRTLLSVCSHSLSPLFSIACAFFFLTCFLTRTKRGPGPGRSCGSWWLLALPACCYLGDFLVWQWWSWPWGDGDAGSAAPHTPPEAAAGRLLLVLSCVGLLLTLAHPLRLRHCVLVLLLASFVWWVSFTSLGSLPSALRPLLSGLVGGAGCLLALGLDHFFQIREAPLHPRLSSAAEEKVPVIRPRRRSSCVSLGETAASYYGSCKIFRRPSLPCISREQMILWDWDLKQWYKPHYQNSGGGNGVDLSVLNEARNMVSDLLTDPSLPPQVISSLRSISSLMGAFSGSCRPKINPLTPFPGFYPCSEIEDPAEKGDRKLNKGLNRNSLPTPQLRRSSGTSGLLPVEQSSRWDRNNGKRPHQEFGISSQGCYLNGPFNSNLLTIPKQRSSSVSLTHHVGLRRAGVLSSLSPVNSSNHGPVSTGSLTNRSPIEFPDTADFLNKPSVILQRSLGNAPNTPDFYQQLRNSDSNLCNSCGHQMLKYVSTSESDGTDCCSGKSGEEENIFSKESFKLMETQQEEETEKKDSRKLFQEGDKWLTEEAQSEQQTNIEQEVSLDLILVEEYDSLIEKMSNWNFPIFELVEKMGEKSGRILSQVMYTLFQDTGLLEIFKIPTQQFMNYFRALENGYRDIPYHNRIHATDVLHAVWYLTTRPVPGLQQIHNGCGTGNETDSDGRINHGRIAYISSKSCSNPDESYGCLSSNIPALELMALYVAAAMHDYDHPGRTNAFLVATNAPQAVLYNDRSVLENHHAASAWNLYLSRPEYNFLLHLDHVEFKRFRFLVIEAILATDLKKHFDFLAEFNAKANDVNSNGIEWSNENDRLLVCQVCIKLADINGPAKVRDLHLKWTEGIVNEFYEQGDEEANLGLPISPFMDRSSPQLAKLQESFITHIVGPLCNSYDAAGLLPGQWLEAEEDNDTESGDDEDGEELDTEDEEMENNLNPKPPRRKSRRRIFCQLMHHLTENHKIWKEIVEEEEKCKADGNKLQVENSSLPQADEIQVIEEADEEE

[16] = Inhibition of bovine retinal PDE6 using fluorescent labeled cGMP as substrate after 15 mins by IMAP assay
[17] = molecular target: cGMP-dependent 3',5'-cyclic phosphodiesterase (Homo sapiens, UniProt O00408); assay: Inhibition of recombinant full length human PDE2A using fluorescent labeled cAMP as substrate after 15 mins by IMAP assay
Sequence of cGMP-dependent 3',5'-cyclic phosphodiesterase (O00408 whole entry): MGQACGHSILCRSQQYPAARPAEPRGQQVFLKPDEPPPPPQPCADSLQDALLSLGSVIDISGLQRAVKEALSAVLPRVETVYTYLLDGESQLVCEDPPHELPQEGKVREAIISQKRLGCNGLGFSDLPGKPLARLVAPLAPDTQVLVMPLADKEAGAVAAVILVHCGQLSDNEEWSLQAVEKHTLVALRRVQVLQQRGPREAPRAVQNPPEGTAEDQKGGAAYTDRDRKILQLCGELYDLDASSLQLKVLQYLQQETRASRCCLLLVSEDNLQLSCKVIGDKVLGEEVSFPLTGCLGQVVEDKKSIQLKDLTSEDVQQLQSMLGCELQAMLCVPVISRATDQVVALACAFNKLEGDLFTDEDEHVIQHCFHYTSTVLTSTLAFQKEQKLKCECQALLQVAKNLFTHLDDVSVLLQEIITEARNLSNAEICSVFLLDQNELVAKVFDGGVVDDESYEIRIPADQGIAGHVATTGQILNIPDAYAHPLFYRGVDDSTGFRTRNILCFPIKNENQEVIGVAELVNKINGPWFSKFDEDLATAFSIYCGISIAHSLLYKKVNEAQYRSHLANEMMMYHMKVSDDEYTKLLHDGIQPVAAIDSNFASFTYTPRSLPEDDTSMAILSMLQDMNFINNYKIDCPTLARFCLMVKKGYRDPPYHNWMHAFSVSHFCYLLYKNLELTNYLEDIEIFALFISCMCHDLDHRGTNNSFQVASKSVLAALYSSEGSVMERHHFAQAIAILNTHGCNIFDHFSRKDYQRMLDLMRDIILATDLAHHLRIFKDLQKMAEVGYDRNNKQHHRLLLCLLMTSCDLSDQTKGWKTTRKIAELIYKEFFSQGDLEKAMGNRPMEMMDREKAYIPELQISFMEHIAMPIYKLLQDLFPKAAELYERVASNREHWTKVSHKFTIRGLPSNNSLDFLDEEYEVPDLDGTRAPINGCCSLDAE

[18] = molecular target: 3',5'-cyclic-AMP phosphodiesterase 7B (Homo sapiens, UniProt Q9NP56); assay: Inhibition of recombinant full lenght human PDE7B using fluorescent labeled cAMP as substrate after 15 mins by IMAP assay
Sequence of 3',5'-cyclic-AMP phosphodiesterase 7B (Q9NP56 whole entry): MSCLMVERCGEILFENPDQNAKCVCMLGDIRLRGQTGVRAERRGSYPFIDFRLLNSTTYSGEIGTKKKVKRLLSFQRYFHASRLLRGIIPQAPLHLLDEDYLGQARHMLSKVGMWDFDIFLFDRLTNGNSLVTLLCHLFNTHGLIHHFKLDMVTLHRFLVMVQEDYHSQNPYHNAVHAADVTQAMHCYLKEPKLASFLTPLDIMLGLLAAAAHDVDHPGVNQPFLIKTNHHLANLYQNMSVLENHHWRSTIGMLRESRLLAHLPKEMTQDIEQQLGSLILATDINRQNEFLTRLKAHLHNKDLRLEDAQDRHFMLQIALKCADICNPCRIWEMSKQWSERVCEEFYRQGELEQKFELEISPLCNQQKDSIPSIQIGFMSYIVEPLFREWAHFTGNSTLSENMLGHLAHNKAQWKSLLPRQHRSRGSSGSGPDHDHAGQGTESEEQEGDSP

[19] = Intrinsic clearance in human liver microsomes; assay type: ADME; details: read-out: CLH
[20] = Tmax in Sprague-Dawley rat at 9.75 mg/kg administered through oral gavage; assay type: ADME, organism-based; details: in vivo
[21] = AUC(infinity) in Sprague-Dawley rat at 9.75 mg/kg administered through oral gavage; assay type: ADME, organism-based; parameters: dose 9.75 mg/kg, route oral, time infinity; details: in vivo
[22] = Half time in Sprague-Dawley rat at 9.75 mg/kg administered through oral gavage; assay type: ADME, organism-based; details: in vivo
[23] = Cmax in Sprague-Dawley rat at 9.75 mg/kg administered through oral gavage; assay type: ADME, organism-based; parameters: dose 9.75 mg/kg, route oral; details: in vivo
[24] = Half time in Sprague-Dawley rat at 1 mg/kg, iv; assay type: ADME, organism-based; details: in vivo
[25] = Volume of distribution in Sprague-Dawley rat at 1 mg/kg, iv; assay type: ADME, organism-based; details: in vivo
[26] = AUC(infinity) in Sprague-Dawley rat at 1 mg/kg, iv; assay type: ADME, organism-based; parameters: dose 1 mg/kg, time infinity, route intravenous; details: in vivo
Rattus norvegicus = assay: Increase in cognitive performance in ip dosed Sprague-Dawley rat after 60 mins by novel object recognition test; assay type: functional; details: 1 h, read-out: MED
[27] = Clearance in Sprague-Dawley rat at 1 mg/kg, iv; assay type: ADME, organism-based; details: in vivo
[28] = Oral bioavailability in Sprague-Dawley rat at 9.75 mg/kg administered through gavage; assay type: ADME, organism-based; details: in vivo

Row | Compound | logD [1] | Cmax [2] [ng/mL] | AUC(0-t) [3] [ng·h/mL] | AUC(0-t) [4] [ng·h/mL] | logD [5] | Ki [6] [nM] | Ki [7] [µM] | Ratio Ki [8] | Kp (in vivo) | Cmax [9] [ng/mL] | solubility [10] [µM] | Ki [11] [µM] | Ki [12] [µM] | Ki [13] [µM] | Ki [14] [µM] | CLint scaled [19] [mL/min/kg] | Tmax [20] [h] | AUC(0-inf) [21] [ng·h/mL] | half-life [22] [h] | Cmax [23] [ng/mL] | further results
1 | CN1C(=O)c2c(nn(Cc3ccc(S(N)(=O)=O)cc3)c2Nc2ccccc2)N2C1=N[C@@H]1CCC[C@@H]12 | -0.96 | 16 | 15 | 785 | 1.96 | 1.4 | 1.2 | 857 | 0.02 | 650 | > 100 | – | – | – | – | – | – | – | – | – | –
2 | CN1C(=O)c2c(nn(Cc3ccc(C(F)(F)F)nc3)c2Nc2ccccc2)N2C1=N[C@@H]1CCC[C@@H]12 | – | – | – | – | – | 1.9 | 1.2 | – | – | – | – | > 100 | > 100 | 19 | 1.2 | – | – | – | – | – | Ki [15]: 42 µM; Ki [16]: 5.5 µM; Ki [17]: > 100 µM; Ki [18]: 6.1 µM
3 | CN1C(=O)c2c(nn(Cc3ccc(-c4cccc(F)n4)cc3)c2Oc2ccccc2)N2C1=N[C@@H]1CCC[C@@H]12 | 1.05 | 170 | 192 | 210 | 4.61 | 3 | 0.25 | 83 | 0.9 | 165 | 8 (≈ 4.07 µg/mL) | – | – | – | – | 214 | – | – | – | – | –
4 | CN1C(=O)c2c(nn(Cc3ccc(-c4ccccc4)cc3)c2Nc2ccccc2)N2C1=N[C@@H]1CCC[C@@H]12 | 1.92 | 474 | 542 | 286 | > 5 | 0.85 | 1.3 | – | – | 130 | 2 (≈ 0.977 µg/mL) | 33 | > 100 | 7.9 | 1.6 | – | 4 | 816 | 3.1 | 102 | Ki [15]: 1.5 µM; Ki [16]: 1.1 µM; Ki [17]: 37 µM; Ki [18]: 0.91 µM
5 | CN1C(=O)c2c(nn(Cc3ccc(-c4cccc(F)n4)cc3)c2Nc2ccccc2)N2C1=N[C@@H]1CCC[C@@H]12.O=P(O)(O)O [LENRISPODUN PHOSPHATE] | 1.27 | 387 | 588 | 826 | 4.41 | 0.058 | – | – | – | 490 | 22 | – | – | – | 0.63 | 78 | 0.75 | 802 | 1.5 | 252 | half-life [24]: 1.4 h; Vd [25]: 6.83 L/kg; AUC(0-inf) [26]: 300 ng·h/mL; minimal effective dose (Rattus norvegicus): 3 mg/kg; clearance [27]: 55 mL/min/kg; bioavailability [28]: 28%
6 | CN1C(=O)c2c(nn(Cc3ccc(-c4cccc(F)n4)cc3)c2Sc2ccccc2)N2C1=N[C@@H]1CCC[C@@H]12 | 2.49 | 71 | 81 | 108 | > 5 | 5.2 | 0.93 | 179 | 0.8 | 93 | < 1 | – | – | – | – | 208 | – | – | – | – | –
7 | CN1C(=O)c2c(nn(Cc3ccc(-c4cccc(F)n4)cc3)c2Oc2ccc(F)cc2)N2C1=N[C@@H]1CCC[C@@H]12 | 1.21 | 64 | 102 | 119 | 4.77 | 6.6 | 0.22 | 33 | 0.9 | 88 | 7 (≈ 3.69 µg/mL) | – | – | – | – | 266 | – | – | – | – | –
8 | CN1C(=O)c2c(nn(Cc3ccc(-c4cccc(F)n4)cc3)c2Cc2ccccc2)N2C1=N[C@@H]1CCC[C@@H]12 | 1.36 | 101 | 154 | 134 | 4.96 | 2.2 | 0.77 | 350 | 1.2 | 86 | < 1 | – | – | – | – | 165 | – | – | – | – | –
9 | CN1C(=O)c2c(nn(Cc3ccc(-c4cccc(F)n4)cc3)c2Cc2ccc(F)cc2)N2C1=N[C@@H]1CCC[C@@H]12 | 1.42 | 81 | 109 | 69 | > 5 | 2.3 | 0.78 | 339 | 1.6 | 44 | < 1 | – | – | – | – | 81 | – | – | – | – | –
10 | CN1C(=O)c2c(nn(Cc3ccc(C(F)(F)F)cc3)c2Nc2ccccc2)N2C1=N[C@@H]1CCC[C@@H]12 | 1.16 | 285 | 548 | 122 | 4.47 | 0.88 | 0.93 | – | – | 60 | 35 (≈ 16.8 µg/mL) | 54 | 50 | 5.4 | 0.59 | 139 | 0.25 | 214 | 1.5 | 75 | half-life [24]: 1.4 h; Vd [25]: 7.44 L/kg; AUC(0-inf) [26]: 271 ng·h/mL; Ki [15]: 30 µM; Ki [16]: 1.6 µM; Ki [17]: 39 µM; clearance [27]: 62 mL/min/kg; bioavailability [28]: 8%; Ki [18]: 1.2 µM
11 | CN1C(=O)c2c(nn(Cc3ccc(-c4ccccn4)cc3)c2Nc2ccccc2)N2C1=N[C@@H]1CCC[C@@H]12 | -0.58 | 28 | 21 | 65 | 3.54 | 0.085 | 0.24 | – | – | 48 | > 100 | 8.2 | 6.1 | 2.7 | 0.6 | 189 | 0.5 | 636 | 1.5 | 158 | half-life [24]: 0.72 h; Vd [25]: 2.48 L/kg; AUC(0-inf) [26]: 420 ng·h/mL; Ki [15]: 1.2 µM; Ki [16]: 0.43 µM; Ki [17]: 24 µM; clearance [27]: 40 mL/min/kg; bioavailability [28]: 16%; Ki [18]: 0.3 µM
12 | CN1C(=O)c2c(nn(Cc3ccc(C(F)(F)F)cc3)c2Nc2ccc(F)cc2)N2C1=N[C@@H]1CCC[C@@H]12 | 1.11 | 133 | 166 | 24 | 4.57 | 0.63 | 0.42 | 667 | 6.9 | 21 | 31 (≈ 15.5 µg/mL) | – | – | – | – | 73 | 0.5 | 164 | 2.2 | 42 | half-life [24]: 1.5 h; Vd [25]: 7.48 L/kg; AUC(0-inf) [26]: 292 ng·h/mL; clearance [27]: 57 mL/min/kg; bioavailability [28]: 6%
